Literature values in patent US6034286A, “Processes for producing saturated alcohols” (Union Carbide Chemicals & Plastics Technology Corporation, priority 1997, dated 2000).

How the values were obtained:
[1] = Table I, organophosphorus ligand
[2] = Table II, promoter; approximate values

| Structure (SMILES) | pKb [1] | pKa [2] |
| --- | --- | --- |
| c1ccc(P(c2ccccc2)c2ccccc2)cc1 [Triphenylphosphine] | 2.74 |  |
| N#CCC#N [CNCH2 CN] |  | 11 |
